Results taken from ChEMBL document CHEMBL2146478, “Discovery of potent inhibitors of receptor protein tyrosine phosphatase sigma through the structure-based virtual screening” (Bioorg Med Chem Lett, 2012).

Columns and labels:
PTPsigma-(Brain) [1] = molecular target: T1, PTPsigma-(Brain) (Homo sapiens, UniProt Q9UM81); assay: Inhibition of His-tagged PTPsigma catalytic domain amino acid 1369 to 1948 using DiFMUP as substrate at 2 uM after 20 mins by spectrofluorometric analysis
Target sequence in this assay (Q9UM81 as listed by the source): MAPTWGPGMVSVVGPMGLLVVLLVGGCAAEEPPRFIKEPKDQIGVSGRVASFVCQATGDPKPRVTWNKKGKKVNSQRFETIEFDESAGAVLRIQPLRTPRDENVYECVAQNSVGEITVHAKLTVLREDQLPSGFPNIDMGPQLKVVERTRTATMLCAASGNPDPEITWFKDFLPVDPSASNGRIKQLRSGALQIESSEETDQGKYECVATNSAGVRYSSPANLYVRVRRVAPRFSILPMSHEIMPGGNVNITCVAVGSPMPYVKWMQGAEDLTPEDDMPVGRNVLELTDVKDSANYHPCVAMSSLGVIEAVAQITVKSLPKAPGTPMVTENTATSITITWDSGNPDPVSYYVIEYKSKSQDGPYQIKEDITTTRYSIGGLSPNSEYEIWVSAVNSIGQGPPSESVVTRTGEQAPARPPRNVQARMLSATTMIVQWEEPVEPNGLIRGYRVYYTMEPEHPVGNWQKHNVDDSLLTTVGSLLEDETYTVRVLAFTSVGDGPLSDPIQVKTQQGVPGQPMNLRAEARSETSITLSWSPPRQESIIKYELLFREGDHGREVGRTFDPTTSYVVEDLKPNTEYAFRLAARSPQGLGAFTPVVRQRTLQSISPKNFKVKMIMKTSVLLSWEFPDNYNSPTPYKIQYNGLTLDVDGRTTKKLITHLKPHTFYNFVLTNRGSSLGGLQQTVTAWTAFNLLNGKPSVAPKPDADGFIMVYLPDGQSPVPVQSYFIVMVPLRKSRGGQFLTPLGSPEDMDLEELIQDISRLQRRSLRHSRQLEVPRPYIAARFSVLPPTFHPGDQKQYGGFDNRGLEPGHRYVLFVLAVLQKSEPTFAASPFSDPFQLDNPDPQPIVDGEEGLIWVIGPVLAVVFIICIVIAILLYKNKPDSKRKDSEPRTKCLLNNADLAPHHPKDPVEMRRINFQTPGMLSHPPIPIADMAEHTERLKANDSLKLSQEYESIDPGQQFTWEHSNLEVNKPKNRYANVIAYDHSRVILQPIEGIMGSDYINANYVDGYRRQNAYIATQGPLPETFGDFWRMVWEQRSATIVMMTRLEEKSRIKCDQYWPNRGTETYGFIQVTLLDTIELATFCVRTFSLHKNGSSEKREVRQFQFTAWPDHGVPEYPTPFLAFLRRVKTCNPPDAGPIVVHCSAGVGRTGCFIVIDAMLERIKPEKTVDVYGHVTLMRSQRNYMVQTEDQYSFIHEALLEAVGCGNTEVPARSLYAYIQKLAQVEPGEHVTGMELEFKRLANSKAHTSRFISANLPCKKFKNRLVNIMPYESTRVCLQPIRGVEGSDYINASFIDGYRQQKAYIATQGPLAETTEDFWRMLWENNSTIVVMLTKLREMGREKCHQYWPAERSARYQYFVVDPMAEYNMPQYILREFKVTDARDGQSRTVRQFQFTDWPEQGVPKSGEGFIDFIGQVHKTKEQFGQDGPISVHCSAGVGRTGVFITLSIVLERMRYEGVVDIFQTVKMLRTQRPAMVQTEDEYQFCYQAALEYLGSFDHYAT

PTPsigma-(Brain) [2] = molecular target: T1, PTPsigma-(Brain); assay: Inhibition of His-tagged PTPsigma catalytic domain amino acid 1369 to 1948 using DiFMUP as substrate after 20 mins by spectrofluorometric analysis
Target sequence in this assay (Q9UM81 whole entry, the tested form may be a part): as the sequence (Q9UM81 as listed by the source) above

[3] = molecular target: T2, Protein tyrosine phosphatase type IVA 1 (Homo sapiens, UniProt Q93096); assay: Inhibition of PRL1
T2 sequence (Q93096 whole entry): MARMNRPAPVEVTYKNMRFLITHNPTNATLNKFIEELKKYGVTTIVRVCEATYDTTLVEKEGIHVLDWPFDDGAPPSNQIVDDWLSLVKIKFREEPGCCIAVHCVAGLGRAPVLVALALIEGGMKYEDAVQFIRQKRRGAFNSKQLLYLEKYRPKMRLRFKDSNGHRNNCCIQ

[4] = molecular target: Protein tyrosine phosphatase type IVA 3 (Homo sapiens, UniProt O75365); assay: Inhibition of PRL3
[5] = molecular target: T3, Dual specificity protein phosphatase 4 (Homo sapiens, UniProt Q13115); assay: Inhibition of MKP2
T3 sequence (Q13115 whole entry): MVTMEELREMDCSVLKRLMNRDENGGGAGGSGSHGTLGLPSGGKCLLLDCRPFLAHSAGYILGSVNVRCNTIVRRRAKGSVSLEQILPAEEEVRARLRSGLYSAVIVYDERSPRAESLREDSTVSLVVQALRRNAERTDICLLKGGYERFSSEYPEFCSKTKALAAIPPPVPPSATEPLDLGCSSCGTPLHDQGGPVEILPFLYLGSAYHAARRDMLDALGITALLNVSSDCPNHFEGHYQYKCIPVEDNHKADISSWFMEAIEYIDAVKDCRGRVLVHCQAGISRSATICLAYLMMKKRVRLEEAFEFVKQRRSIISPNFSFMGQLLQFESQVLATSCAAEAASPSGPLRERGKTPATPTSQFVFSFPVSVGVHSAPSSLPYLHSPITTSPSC

Protein tyrosine phosphatase type IVA 3, sequence (O75365 whole entry): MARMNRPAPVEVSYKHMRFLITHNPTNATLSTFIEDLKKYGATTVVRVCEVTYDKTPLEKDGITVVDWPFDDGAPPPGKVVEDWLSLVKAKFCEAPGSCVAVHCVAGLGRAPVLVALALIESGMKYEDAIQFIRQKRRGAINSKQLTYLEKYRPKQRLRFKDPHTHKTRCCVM

| inhibition (PTPsigma-(Brain) [1]) [%] | IC50 (PTPsigma-(Brain) [2]) [µM] | IC50 [3] [µM] | IC50 [4] [µM] | IC50 [5] [µM] | Compound |
| --- | --- | --- | --- | --- | --- |
| > 50 | 0.6 | 37.2 | 27.6 | 21 | O=C1NC(=S)S/C1=C\c1cn(-c2ccccc2)nc1-c1cccc(OCc2ccccc2Cl)c1 |
| > 50 | 0.2 | > 100 | > 100 | > 100 | O=C1NC(=O)/C(=C\c2cccn2-c2ccc(C(=O)O)cc2)N1 |
| > 50 | 0.1 | 21 | > 100 | 2.29 | c1ccc2nc(-c3nnc4sc(-c5cnccn5)nn34)ccc2c1 |
| > 50 | 1.3 | > 100 | 57 | > 100 | O=C(CSc1nnc(-c2ccco2)c(-c2ccco2)n1)Nc1ccccc1[N+](=O)[O-] |
| > 50 | 0.7 | > 100 | > 100 | 55.4 | CC1=CC2=NC(=O)/C(=C/c3ccc(O)c(O)c3)C(=N)N2O1 |
| > 50 | 1.2 | 39.8 | 33.2 | > 100 | N=C1/C(=C\c2ccc(O)c(O)c2)C(=O)N=C2SC(c3ccc(O)cc3)=NN12 |
| > 50 | 0.9 | 14 | 11 | > 100 | O=c1/c(=C/c2ccc(O)c(O)c2)sc2nc3ccccc3n12 |
